# pEC50: −log10 of the molar value.
# Columns and labels:
# PqsE S285A [1] = target: T1, PqsE S285A (Pseudomonas aeruginosa, UniProt P20581, S285A); format: biochemical
# PqsE S160A = PqsE S160A (Pseudomonas aeruginosa, UniProt P20581, S160A); format: binding
# PqsE-RhlR interaction = PqsE-RhlR interaction (Pseudomonas aeruginosa, UniProt P20581); experiment: PqsE-RhlR interaction pull-down assay; format: binding; conditions: PqsE:compound 1:1 and 1:2 molar ratios, SDS-PAGE
# hcnA = experiment: qRT-PCR of hcnA transcript; conditions: P. aeruginosa PA14, 100 μM compound
# phzH = experiment: qRT-PCR of phzH transcript; conditions: P. aeruginosa PA14, 100 μM compound
# WT PqsE [2] = target: T2, WT PqsE (Pseudomonas aeruginosa, UniProt P20581); experiment: biochemical; format: binding
# P. aeruginosa PA14 = format: cell-based; conditions: P. aeruginosa PA14 cultures, 100 μM compound, 17 h
# PqsE S285A [3] = target: T1, PqsE S285A; format: binding
# WT PqsE [4] = target: T2, WT PqsE; experiment: Fluorescence polarization binding of BB562; conditions: purified WT PqsE
# P. aeruginosa PAO1 = conditions: cited from earlier work
Structure (SMILES),projected IC50 for PqsE S285A relative to WT PqsE (PqsE S285A [1]),ΔTm PqsE S160A (PqsE S160A) [°C],suppression of the interaction between PqsE and RhlR (PqsE-RhlR interaction),transcription of hcnA (hcnA),transcription of phzH (phzH),pEC50 (WT PqsE [2]),pyocyanin production (P. aeruginosa PA14),ΔTm PqsE S285A (PqsE S285A [3]),"apparent binding constant (Kapp), in words (WT PqsE [4])",pyocyanin production (P. aeruginosa PAO1)
O=C(Nc1cccc(-c2ccn[nH]2)c1)c1cccc2cn[nH]c12 [BB391],at least a log unit higher,5.0,neither BB391 nor BB393 suppressed the interaction,neither molecule drove altered transcription,neither molecule drove altered transcription,6.59,neither molecule caused any decrease in pyocyanin production,lost the ability to shift the Tm,–,–
O=C(NCCCn1cc(-c2ccc(NC(=O)c3cccc4cn[nH]c34)cc2)nn1)c1ccc2c(c1)C(=O)OC21c2ccc(O)cc2Oc2cc(O)ccc21 [BB562],–,–,–,–,–,–,–,–,midnanomolar range,–
"O=C(O)c1ccccc1-c1cccnc1 [C1, 2-(pyridin-3′-yl) benzoic acid, reference compound]",–,12.1,–,–,–,–,–,8.5 °C,–,did not affect pyocyanin production

# Reference: PMC8056388 (ACS Chemical Biology, 2021)
